Values joined by “and” are separate entries in the source; they are usually repeats but may differ in a detail not shown here. Equal values may be shown once. ± gives the expanded uncertainty stated by the source.
Key:
[1] = Closed cell (Static) method
[2] = molar heat capacity at constant pressure; details: 101.33 kPa, Liquid, Small sample (50 mg) DSC

O=S1(=O)CCCC1 [sulfolane]
vapor or sublimation pressure ([1]; 302.16 K, Liquid): 0.00146 ± 0.00012 kPa
vapor or sublimation pressure ([1]; 303.17 K, Liquid): 0.00155 ± 0.00012 kPa and 0.00158 ± 0.00012 kPa
vapor or sublimation pressure ([1]; 305.17 K, Liquid): 0.00188 ± 0.00013 kPa and 0.00187 ± 0.00013 kPa
vapor or sublimation pressure ([1]; 306.17 K, Liquid): 0.00203 ± 0.00013 kPa
vapor or sublimation pressure ([1]; 307.17 K, Liquid): 0.00223 ± 0.00014 kPa and 0.00224 ± 0.00014 kPa and 0.0022 ± 0.00014 kPa
vapor or sublimation pressure ([1]; 308.17 K, Liquid): 0.00241 ± 0.00014 kPa and 0.0024 ± 0.00014 kPa
molar heat capacity at constant pressure ([2]; 304.04 K): 179.5 ± 4.4 J/K/mol and 179.9 ± 4.4 J/K/mol
molar heat capacity at constant pressure ([2]; 309.14 K): 181.3 ± 4.4 J/K/mol
molar heat capacity at constant pressure ([2]; 309.15 K): 181.6 ± 4.4 J/K/mol
molar heat capacity at constant pressure ([2]; 314.25 K): 182.6 ± 4.5 J/K/mol and 183.8 ± 4.5 J/K/mol
molar heat capacity at constant pressure ([2]; 319.35 K): 184.7 ± 4.5 J/K/mol and 184.5 ± 4.5 J/K/mol
molar heat capacity at constant pressure ([2]; 324.46 K): 185.3 ± 4.5 J/K/mol and 184.4 ± 4.5 J/K/mol
molar heat capacity at constant pressure ([2]; 329.56 K): 187.4 ± 4.6 J/K/mol and 186.6 ± 4.6 J/K/mol
molar heat capacity at constant pressure ([2]; 334.66 K): 188.7 ± 4.6 J/K/mol
molar heat capacity at constant pressure ([2]; 334.67 K): 187.9 ± 4.6 J/K/mol
molar heat capacity at constant pressure ([2]; 339.77 K): 189.7 ± 4.6 J/K/mol and 188.5 ± 4.6 J/K/mol
molar heat capacity at constant pressure ([2]; 344.88 K): 190.2 ± 4.7 J/K/mol
molar heat capacity at constant pressure ([2]; 349.98 K): 192.5 ± 4.7 J/K/mol and 192 ± 4.7 J/K/mol
molar heat capacity at constant pressure ([2]; 355.09 K): 193.4 ± 4.7 J/K/mol and 192.3 ± 4.7 J/K/mol

C[S+](C)[O-] [dimethyl sulfoxide]
vapor or sublimation pressure ([1]; 273.65 K, Crystal): 0.00789 ± 0.00032 kPa
vapor or sublimation pressure ([1]; 275.65 K, Crystal): 0.00979 ± 0.0004 kPa
vapor or sublimation pressure ([1]; 278.15 K, Crystal): 0.01278 ± 0.00051 kPa and 0.01277 ± 0.00051 kPa and 0.01275 ± 0.00051 kPa
vapor or sublimation pressure ([1]; 280.64 K, Crystal): 0.01655 ± 0.00057 kPa
vapor or sublimation pressure ([1]; 280.65 K, Crystal): 0.01656 ± 0.00057 kPa
vapor or sublimation pressure ([1]; 283.15 K, Crystal): 0.02138 ± 0.00065 kPa and 0.02137 ± 0.00065 kPa
vapor or sublimation pressure ([1]; 285.65 K, Crystal): 0.02752 ± 0.00074 kPa and 0.02751 ± 0.00074 kPa
vapor or sublimation pressure ([1]; 288.15 K, Crystal): 0.03531 ± 0.00087 kPa and 0.03525 ± 0.00086 kPa
vapor or sublimation pressure ([1]; 290.65 K, Crystal): 0.04487 ± 0.001 kPa and 0.04486 ± 0.001 kPa
vapor or sublimation pressure ([1]; 293.15 K, Liquid): 0.05512 ± 0.0012 kPa and 0.05509 ± 0.0012 kPa and 0.0551 ± 0.0012 kPa
vapor or sublimation pressure ([1]; 295.65 K, Liquid): 0.06631 ± 0.0014 kPa and 0.06632 ± 0.0014 kPa and 0.06633 ± 0.0014 kPa
vapor or sublimation pressure ([1]; 298.15 K, Liquid): 0.07965 ± 0.0016 kPa and 0.07966 ± 0.0016 kPa and 0.07964 ± 0.0016 kPa
vapor or sublimation pressure ([1]; 300.65 K, Liquid): 0.09517 ± 0.0018 kPa and 0.09518 ± 0.0018 kPa
vapor or sublimation pressure ([1]; 303.16 K, Liquid): 0.1134 ± 0.0021 kPa
vapor or sublimation pressure ([1]; 305.66 K, Liquid): 0.1346 ± 0.0021 kPa
vapor or sublimation pressure ([1]; 308.16 K, Liquid): 0.1592 ± 0.0023 kPa
